The source of these data is ChEMBL document CHEMBL1201862, “PubChem BioAssay data set” (2004).

For one test, the target named is Troponin, cardiac muscle (Homo sapiens, UniProt P19429+P45379+P63316). In words: Fluorescence-based biochemical high throughput dose response assay for activators of the calcium sensitivity of cardiac Regulated Thin Filaments (RTF). [Related pubchem assays (depositor defined):AID493008, AID493018, AID504382, AID504383]. The class given is protein-complex assay.
A further test relates to Streptococcus. In words: Group A Streptococcus viability loss, dose response, counter-screen for streptokinase expression inhibitor project, luminescence, BacTiterGlo (AID 1915).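 Further: potency for reduction of bacterial viability or growth.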 The class given is functional, organism-based. A general note: Counterscreens check selectivity or assay interference.
Test [1] has as its target T1, Short transient receptor potential channel 4 (Mus musculus, UniProt Q9QUQ5).
T1 sequence (Q9QUQ5 whole entry): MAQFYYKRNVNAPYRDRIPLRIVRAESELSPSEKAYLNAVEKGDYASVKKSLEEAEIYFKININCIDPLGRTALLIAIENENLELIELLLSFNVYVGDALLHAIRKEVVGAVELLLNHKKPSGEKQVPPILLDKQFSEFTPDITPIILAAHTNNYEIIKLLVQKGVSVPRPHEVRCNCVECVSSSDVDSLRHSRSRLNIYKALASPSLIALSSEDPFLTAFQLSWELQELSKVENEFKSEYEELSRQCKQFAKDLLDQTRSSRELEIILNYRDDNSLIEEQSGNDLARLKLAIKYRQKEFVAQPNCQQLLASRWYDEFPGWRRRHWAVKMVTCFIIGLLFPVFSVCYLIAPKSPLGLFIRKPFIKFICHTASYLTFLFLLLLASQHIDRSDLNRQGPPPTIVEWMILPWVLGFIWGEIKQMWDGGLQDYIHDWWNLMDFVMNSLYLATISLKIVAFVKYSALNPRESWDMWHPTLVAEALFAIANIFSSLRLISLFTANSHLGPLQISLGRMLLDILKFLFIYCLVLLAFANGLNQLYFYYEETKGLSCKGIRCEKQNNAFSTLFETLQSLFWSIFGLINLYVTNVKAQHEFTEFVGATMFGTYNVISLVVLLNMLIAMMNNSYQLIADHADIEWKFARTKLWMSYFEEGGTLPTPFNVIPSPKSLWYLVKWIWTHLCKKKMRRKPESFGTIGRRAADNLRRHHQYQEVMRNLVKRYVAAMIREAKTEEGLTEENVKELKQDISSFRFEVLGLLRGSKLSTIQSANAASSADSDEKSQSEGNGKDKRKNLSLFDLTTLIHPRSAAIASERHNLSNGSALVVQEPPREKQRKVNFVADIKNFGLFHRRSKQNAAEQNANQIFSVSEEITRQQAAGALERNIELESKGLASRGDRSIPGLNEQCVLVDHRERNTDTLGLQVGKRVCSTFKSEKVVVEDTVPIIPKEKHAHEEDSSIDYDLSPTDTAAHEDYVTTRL
In words: mouse TRPC4 channel activators, dose response, cell-based, HEK293 TRPC4/mu-opioid, Fluo-4 calcium (AID 434937). The class given is functional.

Test [2] has as its system Streptococcus sp. 'group A'. In words: growth inhibition of control SK(-) GAS strain, dose response, counter-screen for streptokinase expression inhibitor project, luminescence, kanamycin, BacTiterGlo, confirmation (AID 1900). The test is classed as functional, organism-based.
Test [3] deals with T1, Short transient receptor potential channel 4. Description: mouse TRPC4 channel inhibitors, dose response, cell-based, HEK293 TRPC4/mu-opioid, Fluo-4 calcium (AID 434942).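 Further: potency of inhibitors blocking the TRPC4 calcium response.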 The test is classed as functional.
Test [4] has as its target T2, CAAX prenyl protease 2 (Homo sapiens, UniProt Q9Y256).
T2 sequence (Q9Y256 whole entry): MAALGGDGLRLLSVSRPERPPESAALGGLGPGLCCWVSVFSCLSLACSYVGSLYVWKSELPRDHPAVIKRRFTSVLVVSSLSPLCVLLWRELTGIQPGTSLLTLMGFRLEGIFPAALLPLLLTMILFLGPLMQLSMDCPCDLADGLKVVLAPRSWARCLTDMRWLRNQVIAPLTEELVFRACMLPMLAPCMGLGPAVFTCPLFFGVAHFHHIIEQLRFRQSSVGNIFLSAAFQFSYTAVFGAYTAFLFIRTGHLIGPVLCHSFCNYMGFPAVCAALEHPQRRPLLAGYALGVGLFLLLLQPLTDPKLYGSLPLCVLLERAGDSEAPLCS
In words: human Rce1 protease inhibitors, dose response, biochemical, yeast membranes, quenched-peptide fluorescence, cherry-pick (AID 588849).

Test [5] concerns the target T3, CAAX prenyl protease 2 (Saccharomyces cerevisiae S288c, UniProt Q03530).
T3 sequence (Q03530 whole entry): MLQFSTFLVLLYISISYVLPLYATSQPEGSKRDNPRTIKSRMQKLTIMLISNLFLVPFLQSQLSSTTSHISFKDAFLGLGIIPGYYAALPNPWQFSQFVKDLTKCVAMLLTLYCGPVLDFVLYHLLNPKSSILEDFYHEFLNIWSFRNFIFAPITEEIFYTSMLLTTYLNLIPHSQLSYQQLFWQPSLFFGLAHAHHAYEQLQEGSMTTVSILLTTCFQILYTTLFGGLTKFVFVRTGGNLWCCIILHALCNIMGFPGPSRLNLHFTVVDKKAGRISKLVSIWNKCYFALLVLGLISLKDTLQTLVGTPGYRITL
The class given is biochemical.

The target in a further test is T4, Streptokinase A (Streptococcus pyogenes serotype M1, UniProt P10520).
T4 sequence (P10520 whole entry): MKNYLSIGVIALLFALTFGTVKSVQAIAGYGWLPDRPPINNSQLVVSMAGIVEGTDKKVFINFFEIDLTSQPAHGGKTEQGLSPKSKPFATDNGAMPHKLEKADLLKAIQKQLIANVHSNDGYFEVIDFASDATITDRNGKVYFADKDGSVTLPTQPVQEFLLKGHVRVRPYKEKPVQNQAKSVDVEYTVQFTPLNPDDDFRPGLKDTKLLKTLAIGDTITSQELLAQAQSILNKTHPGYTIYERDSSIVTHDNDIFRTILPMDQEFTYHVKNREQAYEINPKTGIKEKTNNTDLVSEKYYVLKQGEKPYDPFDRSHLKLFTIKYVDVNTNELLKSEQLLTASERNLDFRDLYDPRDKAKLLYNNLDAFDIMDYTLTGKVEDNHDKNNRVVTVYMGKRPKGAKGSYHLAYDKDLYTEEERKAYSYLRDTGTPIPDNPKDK
In words: S. pyogenes streptokinase expression inhibitors, potency, dose response, plasminogen activation absorbance, OD405 (AID 1914).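 Further: secreted streptokinase activity via plasminogen activation per viability signal from cell pellet.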 The class given is functional, Streptococcus pyogenes M1 GAS.

Test [6] has as its target T5, COUP transcription factor 2 (Homo sapiens, UniProt P24468).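 Further: HEK293 cells transiently cotransfected with COUP-TFII expression vector and reporter; luciferase reporter luminescence driven by COUP-TFII from the pX2-168 reporter plasmid.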
T5 sequence (P24468 whole entry): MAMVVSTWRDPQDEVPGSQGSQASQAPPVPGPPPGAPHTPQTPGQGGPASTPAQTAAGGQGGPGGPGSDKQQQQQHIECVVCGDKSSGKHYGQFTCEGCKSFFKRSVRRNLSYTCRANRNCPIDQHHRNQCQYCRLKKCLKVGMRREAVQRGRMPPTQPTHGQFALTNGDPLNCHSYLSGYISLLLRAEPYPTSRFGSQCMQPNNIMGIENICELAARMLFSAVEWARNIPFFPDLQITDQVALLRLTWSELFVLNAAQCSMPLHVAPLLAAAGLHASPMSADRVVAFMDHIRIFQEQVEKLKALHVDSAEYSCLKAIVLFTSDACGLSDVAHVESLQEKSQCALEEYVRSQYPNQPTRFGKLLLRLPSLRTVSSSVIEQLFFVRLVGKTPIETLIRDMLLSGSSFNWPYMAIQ
Description: Luminescence-based cell-based high throughput dose response assay to identify inhibitors of COUP-TFII (NR2F2). The test is classed as functional.

Test [7] concerns HEK293. Description: NOD2 signaling inhibitors in MDP-stimulated cells, cell-based, uHTS, luminescence (AID 2001). The class given is functional. Conditions: Homo sapiens.
Test [8] relates to HEK293. Description: cells. Conditions: Homo sapiens. The test is classed as functional, cell-based.
A short description of test [9]: cytotoxicity in HEK-293T cells, dose response, cytotoxicity control for BCR NF-kB inhibitor project, luminescence, B-cell screen hits (AID 489021).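 Further: HEK-293T cells carrying an NF-kB luciferase reporter; cells exposed to compound for about 14 hours before viability readout.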 The class given is functional, cell-based.
For another test, the system named is INS1. In words: beta cell apoptosis inhibitors, cytokine rescue, dose response, luminescence, retest (AID 449756).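 Further: cell death triggered by IL-1 beta plus TNF-alpha plus IFN-gamma mixture; protective hits raise ATP signal compared with cytokine alone wells.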 The class given is functional, cell-based. The following applies: Rattus norvegicus.
The subject of test [10] is HEK293. Description: cells. The class given is functional, cell-based. Conditions: Homo sapiens. This is another data set of the same source.
Test [11] deals with HEK293. In words: NOD1 signaling inhibitors, primary screen, cell-based, luminescence, uHTS (AID 1578). The class given is functional. The following applies: Homo sapiens.
Test [12] deals with T6, Nucleotide-binding oligomerization domain-containing protein 1 (Homo sapiens, UniProt Q9Y239).
T6 sequence (Q9Y239 whole entry): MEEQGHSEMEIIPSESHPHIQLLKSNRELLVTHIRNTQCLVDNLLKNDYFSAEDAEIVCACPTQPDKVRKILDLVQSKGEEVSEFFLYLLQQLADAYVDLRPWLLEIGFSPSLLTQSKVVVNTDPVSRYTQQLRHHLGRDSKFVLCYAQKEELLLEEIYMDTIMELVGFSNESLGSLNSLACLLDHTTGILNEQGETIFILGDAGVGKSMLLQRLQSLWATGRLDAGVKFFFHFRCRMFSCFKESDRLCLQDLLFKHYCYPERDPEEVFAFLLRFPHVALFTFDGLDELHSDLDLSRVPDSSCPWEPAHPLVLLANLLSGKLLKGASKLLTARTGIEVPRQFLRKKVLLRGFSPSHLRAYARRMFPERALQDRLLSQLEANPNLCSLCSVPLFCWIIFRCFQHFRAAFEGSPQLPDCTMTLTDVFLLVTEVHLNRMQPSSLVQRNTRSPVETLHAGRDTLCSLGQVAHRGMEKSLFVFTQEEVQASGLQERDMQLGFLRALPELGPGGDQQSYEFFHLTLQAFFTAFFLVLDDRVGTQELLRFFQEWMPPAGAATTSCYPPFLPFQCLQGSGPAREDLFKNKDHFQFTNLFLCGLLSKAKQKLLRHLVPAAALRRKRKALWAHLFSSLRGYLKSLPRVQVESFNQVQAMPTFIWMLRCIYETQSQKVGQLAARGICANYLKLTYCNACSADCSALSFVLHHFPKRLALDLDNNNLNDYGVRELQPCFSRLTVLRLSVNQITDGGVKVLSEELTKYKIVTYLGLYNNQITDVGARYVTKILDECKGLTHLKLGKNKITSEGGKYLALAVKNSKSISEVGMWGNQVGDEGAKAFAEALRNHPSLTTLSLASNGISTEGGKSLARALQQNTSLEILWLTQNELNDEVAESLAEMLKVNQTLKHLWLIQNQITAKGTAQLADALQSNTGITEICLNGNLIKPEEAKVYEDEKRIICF
Description: NOD1 signaling inhibitors, SAR follow-up, revised (AID 2333). The test is classed as functional.

The next test concerns the target Tumor necrosis factor (Homo sapiens, UniProt P01375). In words: TNFa-triggered NF-kB activation inhibitors, SAR follow-up, cell-based, revised (AID 2337). The class given is functional.
Test [13] has as its system HEK293. In words: cells. Conditions: Homo sapiens.

The source made the active and inactive calls.

Tumor necrosis factor, sequence (P01375 whole entry): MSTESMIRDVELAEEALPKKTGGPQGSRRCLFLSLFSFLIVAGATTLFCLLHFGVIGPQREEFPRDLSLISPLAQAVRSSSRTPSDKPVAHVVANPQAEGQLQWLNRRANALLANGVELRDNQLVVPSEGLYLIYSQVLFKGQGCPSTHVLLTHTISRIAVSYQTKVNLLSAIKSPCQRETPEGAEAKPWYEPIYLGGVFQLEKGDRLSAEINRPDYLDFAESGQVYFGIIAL

In general, EC50 refers to the concentration needed to bring the measured effect to its halfway point. In the case of `Cn1cnnc1Sc1nc2ccccc2nc1NS(=O)(=O)c1ccccc1`, the EC50 on Troponin, cardiac muscle was > 71.5 µM (inactive).
The same measure, in the same setting: the same measure for `Cc1ccc(C)c(C(=O)CSc2nnc(C(C)C)[nH]2)c1`: > 71.5 µM (inactive); for `Cc1cccn2c(=O)c(/C=C3\SC(=S)N(CC(C)C)C3=O)c(NCCCOC(C)C)nc12`: 0.287 µM (active).
With `O=C(NC(=S)NNC(=O)c1ccco1)c1ccc(Br)cc1`, the EC50 is 2.16 µM (active) in the test on Streptococcus, 5.96 µM (active) in test [1], 1.03 µM (active) in test [2] and 13.3 µM (active) in test [3].
Usually AC50 stands for the concentration giving half of the maximal activity seen. Consider `CCOc1ccc(-c2nc(CCl)cs2)cc1OC`, for which the AC50 at CAAX prenyl protease 2 [4] was > 100 µM (inactive).
Consider `COc1ccc(-n2nc(C(=O)NCC(=O)N3CCC(C)CC3)c3ccccc3c2=O)cc1`, for which the half-maximal activity concentration (AC50) on CAAX prenyl protease 2 [5] is 3.87 µM (active).
Still for that read-out and setting: to `C=C(C)CSc1nc2sc3c(c2c(=O)n1-c1ccc(OC)cc1)CCN(C)C3` belongs 3.45 µM (active).
As for `COc1ccc(-c2oc3ncn(Cc4ccco4)c(=N)c3c2-c2ccc(OC)cc2)cc1`, the figures for the EC50 (in the test with Streptococcus; on Streptokinase A; in [2]) were > 150 µM (not active), 14.8 µM (active) and 6.01 µM (active), respectively. In addition, the AC50 at CAAX prenyl protease 2 [4] is 79.2 µM (active).
The IC50 is the concentration that inhibits the measured activity by half. `COc1ccc(NS(=O)(=O)c2ccc(-c3coc(C)n3)cc2)cc1OC`: the IC50 in test [6] was 5.85 µM (active); in the test with HEK293 [7] it was 6.82 µM (active); with HEK293 [8], > 20 µM (inactive); in test [9], > 80 µM (inactive); in the test with HEK293 [10] it was 4.75 µM (active). Further, the AC50 in the test with INS1 is 2.88 µM (active). Moreover, the EC50 with HEK293 [11] was 1.1 µM (active).
As for `COc1ccc(-c2nc(CN3CCN(c4ncnc5ccccc45)CC3)c(C)o2)cc1`, the IC50 in test [12] is 3.13 µM (active); on Tumor necrosis factor, 4.08 µM (active); with HEK293 [13], 11.9 µM (active).
On to `CCC(=O)N1c2ccc(S(=O)(=O)N3CCN(c4ccc(C(C)=O)cc4)CC3)cc2CC1C` (stereo not drawn), for which the results for the IC50 (in [12]; on Tumor necrosis factor; in the test on HEK293 [13]) were 2 µM (active), 1.63 µM (active) and 14.7 µM (active), respectively.
As to `CS(=O)(=O)Cc1ccc(C(=O)N(CCc2ccccc2)Cc2ccccc2)cc1`, at CAAX prenyl protease 2 [4], the concentration at half-maximal activity (AC50) was 35.8 µM (active).
